The target of series [1] is STAT3 (Mus musculus, UniProt P42227). Briefly: Western blot of p-STAT3 in BV-2 phenotypic assays (Aβ1-42 clearance, LPS). It counts as cell-based. The note with it: 25 μM. The procedure: Western blot analyses: Samples for western blot analyses were prepared from 3 assays which provided evidence of HCQ-associated rescue (i.e., Ab1-42 clearance, tau phosphorylation, and LPS-induced neuroinflammation). Samples were prepared identically as described above in section: Effect of HCQ on AD-related phenotypes in cell culture, and scaled up to 24-well format to allow for adequate sample volume. After HCQ treatment, cells were washed once with PBS and harvested in 50 μl 50 mM HEPES+2% SDS lysis buffer. The extracts were then boiled at 95° C. for 5 mins. Analytic methods were identical to those described above in Example 4.
STAT3, sequence (P42227 whole entry): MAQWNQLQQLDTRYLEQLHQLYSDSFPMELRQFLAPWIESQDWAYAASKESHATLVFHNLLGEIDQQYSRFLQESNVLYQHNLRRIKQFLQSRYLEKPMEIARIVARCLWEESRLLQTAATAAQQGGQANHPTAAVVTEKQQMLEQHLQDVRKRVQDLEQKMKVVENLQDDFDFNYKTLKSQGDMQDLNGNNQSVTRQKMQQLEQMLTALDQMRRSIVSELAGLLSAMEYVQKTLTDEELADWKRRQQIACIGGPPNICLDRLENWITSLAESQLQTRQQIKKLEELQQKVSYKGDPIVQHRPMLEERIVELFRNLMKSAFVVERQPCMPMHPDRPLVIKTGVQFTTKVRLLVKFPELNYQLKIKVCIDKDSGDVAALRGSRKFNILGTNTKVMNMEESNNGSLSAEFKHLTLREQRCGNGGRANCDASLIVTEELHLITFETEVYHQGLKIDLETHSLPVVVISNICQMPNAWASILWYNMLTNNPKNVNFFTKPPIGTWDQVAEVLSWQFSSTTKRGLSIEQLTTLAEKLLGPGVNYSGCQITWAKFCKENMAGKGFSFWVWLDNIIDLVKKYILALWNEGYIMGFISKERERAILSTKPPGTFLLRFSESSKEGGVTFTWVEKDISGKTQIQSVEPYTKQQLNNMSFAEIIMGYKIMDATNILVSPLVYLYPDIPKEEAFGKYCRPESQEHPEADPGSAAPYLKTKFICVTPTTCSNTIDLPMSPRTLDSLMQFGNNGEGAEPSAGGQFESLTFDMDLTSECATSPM
Statistical analyses: Statistical analysis was performed using STATA 16.1. Group differences were evaluated using two-sample t-tests (parametric) to calculate differences in p-STAT3 levels between HCQ treated and control samples. We additionally used the Wilcoxon rank-sum test (non-parametric) to confirm that results were robust to distributional assumptions. Significant differences were indicated as p<0.05.
For orientation: In western blotting, separated proteins are transferred to a membrane and probed.

Series [2] has as its system H4-hAPP cells. As to the kind of experiment: Aβ secretion assay. It counts as cell-based, human. How it is done:
Aβ Secretion: H4-hAPP cells were cultivated in Opti-MEM supplemented with 10% FCS, 1% penicillin/streptomycin 200 μg/mL Hygromycin B and 2.5 μg/mL Blasticidin S. H4-hAPP cells were seeded into 96 well plates (2×10^4 cells per well). On the next day, cells in 96 well plates were treated with compounds, R.I. (DAPT 400 nM) or vehicle. 24 h later, supernatants were collected for further Aβ measurements by MSD® (V-PLEX Aβ Peptide Panel 1 (6E10) Kit, K15200E, Mesoscale Discovery).
Aβ secretion: Human APP overexpressing H4-hAPP cells were cultivated in Opti-MEM supplemented with 10% FCS, 1% penicillin/streptomycin 200 μg/mL Hygromycin B and 2.5 μg/mL Blasticidin S. H4-hAPP cells were seeded into 96 well plates (2×10^4 cells per well). On the next day, cells in 96 well plates were treated HCQ (0.25 μM, 2.5 μM and 25 μM) or the reference item (DAPT 400 nM), a γ-secretase inhibitor vehicle. 24 h later, supernatants were collected for further Aβ measurements by MSD® (V-PLEX Aβ Peptide Panel 1 (6E10) Kit, K15200E, Mesoscale Discovery).
Cultivation and treatment of H4-hAPP cells: H4-hAPP cells were thawed and cultivated in Opti-MEM supplemented with 10% FCS, 1% penicillin/streptomycin 200 μg/ml Hygromycin B and 2.5 μg/ml Blasticidin S (=culture medium). H4-hAPP cells were seeded into 96 well plates (2×10^4 cells per well). On the next day, cells in 96 well plates were treated with TUDCA (100 μM (C1), 10 μM (C2), or 1.0 μM (C3)), R.I. (DAPT 400 nM) or vehicle. Alternatively, cells in 96 well plates were treated with 25 μM HCQ/0.1 μM TUDCA (C1), 2.5 μM HCQ/100 μM TUDCA (C2), and 2.5 μM HCQ/10 μM TUDCA (C3). 24 h later, supernatants were collected for further Aβ measurements by MSD. The experiment was performed in n=6 technical replicates for all groups.
Aβ38, 40, 42 measurement: Supernatants were diluted 1:10 and analyzed for human Aβ38, 40, and 42 with MSD® 96-well MULTI-SPOT® 6E10 Abeta Triplex Assay (Mesoscale Discovery, Rockville, MD). The immune assay was carried out according to the manual and plates are read on the MESO QuickPlex SQ 120 multiplexing instrument. Analyte levels were evaluated according to adequate Aβ peptide standards (MSD) as pg per mL.
Aβ Secretion: H4-hAPP cells were cultivated in Opti-MEM supplemented with 10% FCS, 1% penicillin/streptomycin, hygromycin B (200 μg/ml), and blasticidin S (2.5 μg/ml). H4-hAPP cells were seeded into 96-well plates (2×10^4 cells per well). On the next day, cells in 96-well plates were treated with compounds, reference item [400 nM N-[N-(3,5-difluorophenacetyl-1-alanyl)]-S-phenylglycine t-butyl ester (DAPT)], or vehicle. Twenty-four hours later, supernatants were collected for further Aβ measurements by MSD [V-PLEX Aβ Peptide Panel 1 (6E10) Kit, K15200E, Mesoscale Discovery].
Culture and treatment of H4-hAPP cells: H4-hAPP cells were thawed and cultivated in Opti-MEM supplemented with 10% FCS, 1% penicillin/streptomycin 200 μg/ml Hygromycin B and 2.5 μg/ml Blasticidin S (=culture medium). H4-hAPP cells were seeded into 96 well plates (2×10^4 cells per well). On the next day, cells in 96 well plates were treated with T.I., R.I. (DAPT 400 nM) or vehicle. 24 h later, supernatants were collected for further Aβ measurements by MSD. The experiment was performed in n=6 technical replicates for all groups.
Aβ38, 40, 42 measurement in H4-hAPP cells: Supernatants were diluted 1:10 and analyzed for human Aβ38, 40, and 42 with MSD® 96-well MULTI-SPOT® 6E10 Abeta Triplex Assay (Mesoscale Discovery). The immune assay was carried out according to the manual and plates were read on the MESO QuickPlex SQ 120. Analyte levels were evaluated according to adequate Aβ peptide standards (MSD) as pg per mL.

For series [3] the following is noted: macaques; cited from earlier work.
The test system of series [4] is iPSCs. As to the kind of experiment: LPS induced neuroinflammation (iPSCs). Type of series: cell-based. The note with it: posterior probability of a protective effect. The procedure: Cell-based assays: For each combination of drugs and assay, the posterior probability P(Hi|data) of protective, neutral, and adverse drug effect (formal hypotheses H1, H0, H2, respectively) were evaluated. Dose-response relationships (x-y data) were modeled with a Bayesian nonlinear regression model:
and Bayesian estimation of the posterior density of the fold change was performed using default settings of the Markov chain Monte Carlo samples implemented by the PyMC python library. For efficient sample, each bioactivity data set was standardized such that […] corresponded to one standard deviation. Diagnostic criteria (posterior sample of fitted curves, effective sample sizes, values of the r statistic, and Markov chain standard errors) were inspected for the fit and three poorly fitted data sets out of a total of 91 data sets were excluded.

Structures are written as SMILES.

As for `CCN(CCO)CCCC(C)Nc1ccnc2cc(Cl)ccc12` (stereo not drawn) [HCQ, hydroxychloroquine], the “p-STAT3 (Tyr705)” value in series [1] (Aβ1-42 clearance assay, relative to VC) is listed as “lowered”; in series [1] (LPS-induced neuroinflammation assay, vs VC) it was “significantly lower”. Further, the “secreted Aβ1-42” value in series [2] (HCQ 0.25 μM, 2.5 μM and 25 μM) is “did not alter”. The Kp brain/plasma in series [3] is 21.99±0.11.
Turning to `C[C@H](CCC(=O)NCCS(=O)(=O)O)[C@H]1CC[C@H]2[C@@H]3[C@@H](O)C[C@@H]4C[C@H](O)CC[C@]4(C)[C@H]3CC[C@]12C` [TUDCA, tauroursodeoxycholic acid], the “effect in LPS induced neuroinflammation (iPSCs)” value in series [4] is given as “strongly protective”. In series [2] (TUDCA 100, 10, 1.0 μM, 24 h), the “secretion of Aβ1-38” value was “lowers”, the “secretion of Aβ1-40” value is given as “lowers” and the “secretion of Aβ1-42” value is listed as “lowers”. The “effect in Aβ release (H4 cells)” value in series [2] (posterior probability of a protective effect) is recorded as “protective”.

Source of the values: patent publication US20240269128A1, “COMPOUNDS FOR TREATING OR PREVENTING ALZHEIMER'S DISEASE” (THE UNITED STATES OF AMERICA, as represented by the …, priority 2021, published 2024).
